{
  "source": "patent US20240274252A1",
  "about": "“Dosage Calculator” (Closed Loop Medicine Ltd., priority 2023, published 2024)",
  "origin": "cited, not measured here",
  "key": {"[1]": {"assay": "not given", "remark": "listed apart in the source"}, "[2]": {"assay": "not given", "remark": "listed apart in the source"}, "[3]": {"details": "for time to peak levels: immediate release"}, "[4]": {"details": "model input parameter, FIG. 4A"}, "[5]": {"details": "patient population"}},
  "note": "Several values for one entry are separate records, joined by “and”; a condition that tells them apart may be missing. Identical values can stand only once. Like-named read-outs stand apart in the source and are kept apart here.",
  "data": [
    {"smiles": "CCCCCCOC(=O)NC(=N)c1ccc(NCc2nc3cc(C(=O)N(CCC(=O)OCC)c4ccccn4)ccc3n2C)cc1", "note": "[Dabigatran etexilate]", "values": [
      {"measurement": "risk of intracranial bleeds compared with warfarin", "setting": "RELY", "value": "small reduction"},
      {"measurement": "comparison with warfarin", "setting": "phase III RELY study, patients with nonvalvular AF", "value": "superior to warfarin"}
    ]},
    {"smiles": "[H]/N=C(/N)c1ccc(NCc2nc3cc(C(=O)N(CCC(=O)O)c4ccccn4)ccc3n2C)cc1", "note": "[dabigatran]", "values": [
      {"measurement": "Change in Drug Level Exposure (AUC)", "setting": "[1]; Age, per year older compared to 72 yr", "value": "0.41% increase per year older compared to 72 yr"},
      {"measurement": "Change in Drug Level Exposure (AUC)", "setting": "[1]; Amiodarone co-administration", "value": 12, "unit": "% increase"},
      {"measurement": "Change in Drug Level Exposure (AUC)", "setting": "[1]; CrCl = 30, relative to median CrCl of 69 in RE-LY", "value": 1.8, "unit": "fold increase"},
      {"measurement": "Change in Drug Level Exposure (AUC)", "setting": "[1]; CrCl = 50, relative to median CrCl of 69 in RE-LY", "value": 1.3, "unit": "fold increase"},
      {"measurement": "decrease in Vd", "setting": "[1]; Hb above 14.3 g · dL^−1", "value": 4, "unit": "%/1 g · dL^−1"},
      {"measurement": "Change in Drug Level Exposure (AUC)", "setting": "[1]; PPIs co-administration", "value": "~13", "unit": "% decrease"},
      {"measurement": "Change in Drug Level Exposure (AUC)", "setting": "[1]; South Asians compared to other ethnicities", "value": "~26% increase in South Asians compared to other"},
      {"measurement": "Change in Drug Level Exposure (AUC)", "setting": "[1]; Verapamil co-administration", "value": 23, "unit": "% increase"},
      {"measurement": "Change in activity: chance of bleeding", "setting": "[1]; coadministration of Asprin, clopidogrel", "value": "Coadministration will increase chance of bleeding"},
      {"measurement": "Change in Drug Level Exposure (AUC)", "setting": "[1]; covariate Haemoglobin", "value": "no effect on AUC"},
      {"measurement": "Change in Drug Level Exposure (AUC)", "setting": "[1]; covariate Weight", "value": "Weight had no effect on AUC but increase in distribution"},
      {"measurement": "Change in Drug Level Exposure (AUC)", "setting": "[1]; females compared to men", "value": "~9% increase in females compared to men"},
      {"measurement": "effect on Cmax", "setting": "[1]; low weight", "value": "will increase Cmax"},
      {"measurement": "Change in Drug Level Exposure (AUC)", "setting": "[1]; patients with heart failure", "value": "~7% increase in patients with HF"},
      {"measurement": "increase in maximum concentration, Cmax", "setting": "[2]; with Quinidine", "value": 56, "unit": "%"},
      {"measurement": "increase in total absorption", "setting": "[2]; with Quinidine", "value": 53, "unit": "%"},
      {"measurement": "increase in total exposure", "setting": "[2]; with ketoconazole", "value": "~1.4", "unit": "fold"},
      {"measurement": "increase in total exposure", "setting": "[2]; with verapamil, depending on when the drug is taken", "value": 2.4, "unit": "fold"},
      {"measurement": "half-life", "setting": "[3]; elimination after absorption", "value": "12 to 17 h and 12 to 14 h"},
      {"measurement": "acyl glucuronides, mean share of parent drug in the plasma", "setting": "[3]; equally active metabolites", "value": "~10", "unit": "%"},
      {"measurement": "time to peak levels", "setting": "[3]; after food", "value": "3 to 4", "unit": "h"},
      {"measurement": "time to peak levels", "setting": "[3]; taken without food", "value": "approximately 1 hour"},
      {"measurement": "PK linearity", "setting": "[3]; in vivo", "value": "linear"},
      {"measurement": "mean half-life", "setting": "[3]; in vivo", "value": 12, "unit": "h"},
      {"measurement": "share of absorbed drug eliminated into urine", "setting": "[3]; in vivo", "value": 80, "unit": "%"},
      {"measurement": "variability in circulating plasma levels", "setting": "[3]; inter-subject, from prodrug conversion and low GI absorption", "value": "up to 50%"},
      {"measurement": "remainder of the drug going into the faeces", "setting": "[3]; oral", "value": "~90", "unit": "%"},
      {"measurement": "time of peak absorption", "setting": "[3]; oral", "value": "~1", "unit": "h"},
      {"measurement": "fraction of the drug absorbed from the GI tract", "setting": "[3]; oral, after conversion from prodrug dabigatran etexilate", "value": "~5% and 3-7%"},
      {"measurement": "increase in availability", "setting": "[3]; pellets removed from the capsule", "value": 75, "unit": "%"},
      {"measurement": "elimination via the kidney, share of total clearance", "setting": "[3]; primary route of elimination", "value": 80, "unit": "%"},
      {"measurement": "total and peak systemic exposure versus dose", "setting": "[3]; range 50-400 mg twice daily", "value": "dose-proportional"},
      {"measurement": "delay of the peak by food", "setting": "[3]; with food, total absorption not affected", "value": "≤ 2", "unit": "h"},
      {"measurement": "Ka, first order drug absorption rate constant", "setting": "[4]", "value": 0.754},
      {"measurement": "Q, intercompartmental clearance", "setting": "[4]", "value": 35.5},
      {"measurement": "Vc, central compartment volume", "setting": "[4]", "value": 673},
      {"measurement": "Vp, peripheral compartment volume", "setting": "[4]", "value": 345},
      {"measurement": "range of trough plasma levels", "setting": "[5]; 110 mg dose", "value": "25 to 160", "unit": "ng/mL"},
      {"measurement": "range of trough plasma levels", "setting": "[5]; 150 mg dose", "value": "40 to 220", "unit": "ng/mL"}
    ]}
  ]
}
